# Reference: patent US10195245B2, “Tetrapeptides derived from human C-X-C chemokines useful for treatment of various skin conditions” (Helix Biomedix, Inc., priority 2013, dated 2019)
# Entries after “also recorded” stand apart in the source; their conditions may differ. Marks after values point to notes of the source that are not given here. Where a SMILES comes first, the peptide text is derived from it.
# Assays:
# Assay type in all cases: cell-based
# [1] = MTT cytotoxicity test on keratinocytes; conditions: human, normal human epidermal keratinocytes, 50 to 500 μg/ml tested
# Method: C-X-C chemokines are well known for their chemotactic activity toward many cell types. […] The experiment was performed in the serum-free keratinocyte growth medium in the absence of supplement in order to restrain cells proliferation. The wounded area was examined by phase-contrast microscopy at the indicated times. […] At 20 μg/ml, the percentage of wound closure induced by SEQ IDs 1, 2, 3, 4, 5, 6 and 7 ranges from 165% to 240% compared to that of PBS treated which was taken as 100% (Table 1). […] To confirm that the peptides are not toxic to the keratinocytes at the concentrations tested for scratch wound closure all peptides were subjected to the MTT cytotoxicity test. None of the peptides were cytotoxic to normal skin keratinocyte in vitro after 24 hrs incubation at concentrations up to 500 ug/ml.
# To make sure the peptides are not cytotoxic to the cells, normal human epidermal keratinocytes were seeded to a 96-well plate. The plate was incubated at 37° C. in the presence of 5% CO2 to allow the cells to grow to >95% confluent. Peptides are diluted into stock solutions at concentrations of 50, 100, 200, and 500 μg/ml. The cell culture media are replaced with fresh media containing peptides at various concentrations then incubated at 37° C. and 5% CO2 for 24 hr. At the end of treatment the cell viability was measured using MTT assay kit purchased from ATCC (Manassas Va.).
# [2] = system: S. aureus LTA induced IL-6 expression on human skin keratinocytes; assay: Blocking LTA induced IL-6 expression (ELISA); conditions: LTA 10 ug/ml pre-incubated with peptide 50 μg/ml 30 min, 24 hrs
# Source text: The Gram-positive cell wall component peptidoglycan (PGN) is well known to stimulate pro-inflammatory cytokine expression. Lipoteichoic acid (LTA) is the key molecule in PGN that causes a concentration- and time-dependent increase in pro-inflammatory signals including nitric oxide synthase (iNOS), cyclooxygenase-2 (COX-2), IL-1 beta, TNF-alpha and IL-6 up-regulation (Lin et al., 2010). We therefore pretreated LTA with the inventive peptides and then assess the IL-6 stimulatory activity upon contact with human skin keratinocytes. […] It is very likely that the positively charged residues of the tetrapeptides bind to the negatively charged LTA thus blocking the interaction of LTA with its receptors. This is significant as bacterial cell wall components have been implicated in inflammatory skin conditions such as acne, rosacea, atopic dermatitis etc.
# S. aureus LTA induced IL-6 stimulation on human epidermal keratinocytes. Human keratinocytes were grown to >80% confluence in serum free keratinocyte cultural media. S. aureus LTA 10 ug/ml was pre-incubated with each peptide (50 μg/ml) at room temperature for 30 min then the mixture was transferred to keratinocyte culture. The treatment was allowed for 24 hrs. The supernatant was removed. […]
# [3] = system: SOR-300-FT human psoriasis tissue construct; assay: qPCR gene expression on SOR-300-FT psoriasis tissue
# Source text: SOR-300-FT, developed by MatTek Corporation (Ashland Mass.), is a highly differentiated in vitro psoriasis tissue comprised of normal, human-derived keratinocytes and psoriatic fibroblasts Morphologically, the tissue is of uniform thickness and it expresses increased levels of hyperproliferated cells as well as pro-inflammatory markers such as psoriasin, elafin, human beta-defensin-2, and LL-37 etc (Ayehunie et al., 2012). The pro-inflammatory condition of the tissue prompts us to test the inventive peptides to see if they modulate the inflammatory response. Due to the high cost of the tissue model, a representative peptide SEQ ID NO 1, HB2233, was selected as a proof of concept study using SOR-300-FT tissue model. The SOR-300-FT tissues were treated with HB2233 in duplicate at 200 μg/ml. Total 12 gene markers associated with psoriasis condition are studied. […] Both HB2233 and calcipotriol down-regulate Ki67 expression which is responsible for the hyperproliferation and early maturation of keratinocytes in psoriasis skin.
# SOR-300-FT™ tissues were transferred to 6-well plates containing 0.9 ml of pre-warmed assay medium and equilibrated to standard culture conditions (37° C., 5% CO2) for 1 hour. After the 1 hr equilibration, the tissues were re-fed with fresh medium as follow: 1) for the 24 hr time point, tissues were feed with 0.9 ml of medium and 2) for time points >24 hr, tissues were feed with 5 ml of culture medium by placing the cell culture inserts on top of the washers (Part # EPI-WSHR, MatTek Corporation). Next, 50 μl of the test articles were applied topically to the psoriatic tissues (n=3) and the test article was added to the culture medium at the 3 concentrations chosen by the Sponsor. At times 24, and 48 hours: a) the tissues were rinsed topically 3× with 300-400 μL of PBS, b) the inserts containing the tissues were held tightly with sterile forceps and the test article was rinsed gently by immersing the insert into PBS and decant medium from insert, and c) fresh test article was re-applied to the tissue immediately after rinsing and decanting (50 μL topically). Analysis was performed at t=72 hr (3× repeat applications). cDNA was generated using the Qiagen RT2 First Strand Kit (cat#330401). Relative gene expression was measured using Qiagen RT2 SYBR Green qPCR Mastermix (cat#330502) and Qiagen RT2 primers. Analysis was carried out using Bio-Rad CFX software.
# [4] = system: human umbilical vein endothelial cells (HUVEC); assay: In vitro angiogenesis assay (capillary tube formation); set-up: key to Promote tube formation 3 hrs / Promote tube formation 5 hrs: 0: Individual cells, well separated; 1: Cells begin to migrate and align themselves; 2: Capillary tubes visible, no sprouting; 3: Sprouting of new capillary tubes visible; 4: Closed polygons begin to form; 5: Complex mesh like structures develop
# Source text: Angiogenesis, the formation of new capillaries from the pre-existing vascular network, is an essential step of wound repair. The peptides generated in the current invention, SEQ ID NOs 1-7, also stimulate capillary tube formation. The in vitro angiogenesis assay uses human umbilical vein endothelial cells (HUVEC) to measurer a series of events that lead to forming new capillary tubes. Upon induction, the HUVEC undergoes migration to align then sprouting from individual cells. The sprouting event leads to formation of new capillary tubes which further develop to form closed polygons. Eventually a complex mesh like structure is developed. Human cathelicidin peptide, LL-37, is a well-studied example to promote angiogenesis. It is used as positive control in the assessment. […] Compared to LL-37, SEQ ID NOs.
# The angiogenesis assay was performed using the In Vitra Angiogenesis Assay Kit purchased from Millipore. Briefly, matrix layer was prepared with ECMATRIX™ solution according to the manufacturer's instructions. The human umbilical vein endothelial cells (HUVEC) (ATCC, Manassas, Va.) were cultured in complete F12K medium (ATCC, Manassas, Va.) supplemented with 0.1 mg/ml of heparin (Sigma-Aldrich), 30 ug/ml of ECGS (Sigma-Aldrich) and 10% fetal bovine serum (ATCC, Manassas, Va.). The cells were harvested and resuspended in complete media. The peptide was mixed with cells at approximately 5×10^3-1×10^4 cells per well in a 96-well plate prior to seeding cells onto the surface of the polymerized ECMATRIX™ solution. The plate was incubated at […], 5% CO2 for up to 9-12 hr. Tube formation was inspected under an inverted light microscope periodically and pictures were taken at 3 and 5 hr intervals and assigned a numerical value to each pattern as shown below.
# [5] = 72 hr, HB2233 at 200 μg/ml, listed as calcipotriol
compound,measurement,setting,value
"CC[C@H](C)[C@H](N)C(=O)N[C@@H](CCCCN)C(=O)N[C@@H](CCCCN)C(=O)N[C@@H](CC(C)C)C(=O)O [HB2274, IKKL] (H-IKKL-OH; N-terminus and C-terminus assumed)",CC50 at 24 h,[1],> 500 µg/mL
"CC[C@H](C)[C@H](N)C(=O)N[C@@H](CCCCN)C(=O)N[C@@H](CCCCN)C(=O)N[C@@H](Cc1c[nH]c2ccccc12)C(=O)O [HB2272, IKKW] (H-IKKW-OH; N-terminus and C-terminus assumed)",CC50 at 24 h,[1],> 500 µg/mL
"CC(C)[C@H](N)C(=O)N[C@@H](CCC(=O)O)C(=O)N[C@@H](CCCCN)C(=O)N[C@@H](Cc1ccccc1)C(=O)O [HB2267, VEKF] (H-VEKF-OH; N-terminus and C-terminus assumed)",CC50 at 24 h,[1],> 500 µg/mL
"CC[C@H](C)[C@H](N)C(=O)N[C@@H](CCC(N)=O)C(=O)N[C@@H](CCCCN)C(=O)N[C@H](C(=O)O)[C@@H](C)CC [HB2271, IQKI] (H-IQKI-OH; N-terminus and C-terminus assumed)",CC50 at 24 h,[1],> 500 µg/mL
"CC[C@H](C)[C@H](N)C(=O)N[C@@H](CCC(=O)O)C(=O)N[C@@H](CCCCN)C(=O)N[C@@H](CCSC)C(=O)O [HB2233, IEKM] (H-IEKM-OH)",CC50 at 24 h,[1],> 500 µg/mL
"CC[C@H](C)[C@H](N)C(=O)N[C@@H](CCCCN)C(=O)N[C@@H](CCCCN)C(=O)N[C@H](C(=O)O)C(C)C [HB2273, IKKV] (H-IKKV-OH; N-terminus and C-terminus assumed)",CC50 at 24 h,[1],> 500 µg/mL
"CC[C@H](C)[C@H](N)C(=O)N[C@@H](CCC(=O)O)C(=O)N[C@@H](CCCCN)C(=O)N[C@H](C(=O)O)[C@@H](C)CC [HB2270, IEKI] (H-IEKI-OH; N-terminus and C-terminus assumed)",CC50 at 24 h,[1],> 500 µg/mL
Lipoteichoic acid [LTA alone],IL-6 expression (arbitrary),[2],1.248 arbitrary
"C=C1/C(=C\C=C2/CCC[C@]3(C)[C@@H]([C@H](C)/C=C/[C@@H](O)C4CC4)CC[C@@H]23)C[C@@H](O)C[C@@H]1O [Calcipotriol, calcipotriol]",downregulation of HBD-2,"[3]; 72 hr treatment, qPCR",9.0 fold
same,downregulation of psoriasin,"[3]; 72 hr treatment, qPCR",2.3 fold
same,Fold change in gene expression: Calgranulin C,"[3]; 72 hr, HB2233 at 200 μg/ml",−1.3 fold
same,Fold change in gene expression: ENA-78,"[3]; 72 hr, HB2233 at 200 μg/ml",1.6 fold
same,Fold change in gene expression: Elafin,"[3]; 72 hr, HB2233 at 200 μg/ml",−1.4 fold
same,Fold change in gene expression: GRO alpha,"[3]; 72 hr, HB2233 at 200 μg/ml",1.3 fold
same,Fold change in gene expression: HBD-2,"[3]; 72 hr, HB2233 at 200 μg/ml",−9.0 fold
same,Fold change in gene expression: IL-8,"[3]; 72 hr, HB2233 at 200 μg/ml",1.3 fold
same,Fold change in gene expression: Ki-67,"[3]; 72 hr, HB2233 at 200 μg/ml",−1.1 fold
same,Fold change in gene expression: LL-37,"[3]; 72 hr, HB2233 at 200 μg/ml",5.1 fold
same,Fold change in gene expression: P63,"[3]; 72 hr, HB2233 at 200 μg/ml",−1.4 fold
same,Fold change in gene expression: Psoriasin,"[3]; 72 hr, HB2233 at 200 μg/ml",−2.3 fold
same,Fold change in gene expression: SLPI,"[3]; 72 hr, HB2233 at 200 μg/ml",2.1 fold
same,Fold change in gene expression: Transglutaminase,"[3]; 72 hr, HB2233 at 200 μg/ml",1.5 fold
same,Fold change in gene expression: ENA-78,[3]; [5],does not seem to affect
same,Fold change in gene expression: GRO alpha,[3]; [5],does not seem to affect
same,Fold change in gene expression: Ki-67,[3]; [5],down-regulate
"LL-37 (LLGDFFRKSKEKIGKEFKRIVQRIKDFLRNLVPRTES; Antibacterial peptide LL-37; UniProt P49913 134-170, looked up) [Human cathelicidin peptide, used as positive control to promote angiogenesis]",capillary tube formation on HUVEC (in words),[4]; 3 and 5 hr treatment,"sprouting of new capillary tubes becomes visible just after 3 hr; also recorded: After 5 hr treatment with LL-37, the closed polygons are formed; also recorded: also stimulate angiogenesis"
same,Promote tube formation 3 hrs,"[4]; 3 hrs, values ≥3 considered significant induction of angiogenesis",3*
same,Promote tube formation 5 hrs,"[4]; 5 hrs, values ≥3 considered significant induction of angiogenesis",4*
